# Measurements as given in patent publication US8263620B2, “Oxadiazole derivatives active on sphingosine-1-phosphate (SIP)” (Glaxo Group Limited, priority 2007, dated 2012).
# pEC50: −log10 of the molar value. Structures can show the parent of a compound that is named as a salt.
# Experiments:
# human S1P3 receptor = biological target: T1, human S1P3 receptor (Homo sapiens, UniProt Q99500); test: S1P3 GTPγS assay; assay type: biochemical; conditions: [35S]-GTPγS SPA, S1P3 RBL-2H3 membranes, agonist
# T1 construct: expressed in transfected cells; membranes
# Method: For membrane preparations all steps were performed at 4° C. Rat hepatoma cells stably expressing the human S1P1 receptor or Rat Basophilic Leukaemia cells (RBL) stably expressing human S1P3 receptor were grown to 80% confluency before being harvested into 10 ml Phospho-Buffered Saline (PBS) and centrifuged at 1200 rpm for 5 minutes. After removal of the supernatant, the pellet was re-suspended and cells were homogenised within a glass Waring blender for 2 bursts of 15 secs in 200 mls of buffer (50 mM HEPES, 1 mM leupeptin, 25 μg/ml bacitracin, 1 mM EDTA, 1 mM PMSF, 2 μM pepstatin A). The blender was plunged into ice for 5 mins after the first burst and 10-40 mins after the final burst to allow foam to dissipate. The material was then spun at 500 g for 20 mins and the supernatant spun for 36 mins at 48,000 g. The pellet was resuspended in the same buffer as above but without PMSF and pepstatin A. The material was then forced through a 0.6 mm needle, made up to the required volume, (usually ×4 the volume of the original cell pellet), aliquoted and stored frozen at −80° C.
# After 30 minutes pre-coupling on ice the bead and membrane suspension was dispensed into a white Greiner polypropylene LV384-well plate (5 μl/well), containing 0.1 μl of the compound. 5 μl/well [^35S]-GTPγS (0.5 nM final radioligand conc) made up in assay buffer was then added to agonist plates. The final assay cocktail (10.1 μl) was centrifuged at 1000 rpm for 5 minutes then read immediately on a Viewlux reader.
# All test compounds were dissolved in DMSO at a concentration of 10 mM and were prepared in 100% DMSO using a 1 in 4 dilution step to provide 11 point dose response curves. The dilutions were transferred to the assay plates ensuring that the DMSO concentration was constant across the plate for all assays.
# All data was normalized to the mean of 16 high and 16 low control wells on each plate. A four parameter curve fit was then applied.
# S1P3 expressing RBL membranes (1.5 μg/well) were homogenised by passing through a 23 G needle. […] GDP 10 μM FAC and saponin 90 μg/ml FAC were also added
# After 30 minutes precoupling on ice, the bead and membrane suspension was dispensed into white Greiner polypropylene LV 384-well plates (5 μl/well), containing 0.1 μl of compound. 5 μl/well [^35S]-GTPγS (0.5 nM for S1P1 or 0.3 nM for S1P3 final radioligand concentration) made in assay buffer was then added to the plates. The final assay cocktail (10.1 μl) was then sealed, spun on a centrifuge, then read immediately on a Viewlux instrument.
# circulating lymphocytes = conditions: animals and man; cited from earlier work
# [1] = clinical studies, first 24 hours of treatment; cited from earlier work
# T1 sequence (Q99500 whole entry): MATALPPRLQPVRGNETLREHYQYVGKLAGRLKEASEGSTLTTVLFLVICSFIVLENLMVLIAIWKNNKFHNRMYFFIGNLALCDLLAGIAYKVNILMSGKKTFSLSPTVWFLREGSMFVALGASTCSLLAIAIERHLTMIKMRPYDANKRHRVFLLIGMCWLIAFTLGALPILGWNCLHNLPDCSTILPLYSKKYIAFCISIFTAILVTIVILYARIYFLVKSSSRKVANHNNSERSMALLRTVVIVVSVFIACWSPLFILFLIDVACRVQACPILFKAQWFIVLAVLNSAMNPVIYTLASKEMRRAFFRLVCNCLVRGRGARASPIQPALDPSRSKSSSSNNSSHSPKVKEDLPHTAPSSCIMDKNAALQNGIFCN
Compound,pEC50 (human S1P3 receptor),effect on circulating lymphocytes (circulating lymphocytes),bradycardia [1]
"Cc1c(-c2noc(-c3ccc(OC(C)C)c(Cl)c3)n2)ccc2c1CCNC2CC(=O)O (stereo not drawn) [Example 3, [6-(5-{3-Chloro-4-[(1-methylethyl)oxy]phenyl}-1,2,4-oxadiazol-3-yl)-5-methyl-1,2,3,4-tetrahydro-1-isoquinolinyl]acetic acid trifluoroacetate]",< 5.00,–,–
"Cc1c(-c2noc(-c3ccc(OC(C)C)c(C#N)c3)n2)ccc2c1CCNC2CC(=O)O (stereo not drawn) [Example 4, [6-(5-{3-Cyano-4-[(1-methylethyl)oxy]phenyl}-1,2,4-oxadiazol-3-yl)-5-methyl-1,2,3,4-tetrahydro-1-isoquinolinyl]acetic acid trifluoroacetate]",< 5.00,–,–
CCCCCCCCc1ccc(CCC(N)(CO)CO)cc1 [FTY720],–,reduce circulating lymphocytes,results in bradycardia in the first 24 hours of treatment

# More lines, main results first:
pEC50 (human S1P3 receptor),Compound,effect on circulating lymphocytes (circulating lymphocytes),bradycardia [1]
< 5.00,"Cc1c(-c2noc(-c3ccc(OC(C)C)c(Cl)c3)n2)ccc2c1CCNC2CCCC(=O)O (stereo not drawn) [Example 5, 4-[6-(5-{3-Chloro-4-[(1-methylethyl)oxy]phenyl}-1,2,4-oxadiazol-3-yl)-5-methyl-1,2,3,4-tetrahydro-1-isoquinolinyl]butanoic acid trifluoroacetate]",–,–
< 5.00,"Cc1c(-c2noc(-c3ccc(OC(C)C)c(C#N)c3)n2)ccc2c1CCNC2CCCC(=O)O (stereo not drawn) [Example 6, 4-[6-(5-{3-Cyano-4-[(1-methylethyl)oxy]phenyl}-1,2,4-oxadiazol-3-yl)-5-methyl-1,2,3,4-tetrahydro-1-isoquinolinyl]butanoic acid trifluoroacetate]",–,–
